Source: paper PMC6540285, “Evaluation of Protein Kinase Inhibitors with PLK4 Cross-Over Potential in a Pre-Clinical Model of Cancer” (International Journal of Molecular Sciences, 2019)

Key:
[1] = biological target: ABL1 H396P (Homo sapiens, UniProt P00519, H396P); assay: SelectScreen kinase profiling, LanthaScreen binding
[2] = biological target: ABL2 (Arg) (Homo sapiens, UniProt P42684); assay: SelectScreen kinase profiling, ZLYTE; assay type: biochemical
[3] = biological target: ACVR1 (ALK2) (Homo sapiens, UniProt Q04771); assay: SelectScreen kinase profiling, LanthaScreen binding
[4] = biological target: ADRBK1 (GRK2) (Homo sapiens, UniProt P25098); assay: SelectScreen kinase profiling, ZLYTE; assay type: biochemical
[5] = biological target: AKT3 (PKB gamma) (Homo sapiens, UniProt Q9Y243); assay: SelectScreen kinase profiling, ZLYTE; assay type: biochemical
[6] = biological target: ALK F1174L (Homo sapiens, UniProt Q9UM73, F1174L); assay: SelectScreen kinase profiling, LanthaScreen binding
[7] = biological target: ALK L1196M (Homo sapiens, UniProt Q9UM73, L1196M); assay: as above
[8] = biological target: BRAF (Homo sapiens, UniProt P15056); assay: SelectScreen kinase profiling, ZLYTE; assay type: biochemical
[9] = biological target: CAMK2D (CaMKII delta) (Homo sapiens, UniProt Q13557); assay: SelectScreen kinase profiling, ZLYTE; assay type: biochemical
[10] = biological target: CAMK4 (CaMKIV) (Homo sapiens, UniProt Q16566); assay: SelectScreen kinase profiling, ZLYTE; assay type: biochemical
[11] = biological target: CDK4/cyclin D3 (Homo sapiens, UniProt P11802); assay: SelectScreen kinase profiling, Adapta; assay type: biochemical; details: CDK4/cyclin D3, 10 µM
[12] = biological target: CDK9/cyclin K (Homo sapiens, UniProt P50750); assay: SelectScreen kinase profiling, LanthaScreen binding
[13] = biological target: CSNK2A2 (CK2 alpha 2) (Homo sapiens, UniProt P19784); assay: SelectScreen kinase profiling, ZLYTE; assay type: biochemical
[14] = biological target: DDR1 (Homo sapiens, UniProt Q08345); assay: SelectScreen kinase profiling, LanthaScreen binding; details: DDR1, 10 µM
[15] = biological target: EPHA7 (Homo sapiens, UniProt Q15375); assay: as above; details: EPHA7, 10 µM
[16] = biological target: FGFR2 (Homo sapiens, UniProt P21802); assay: SelectScreen kinase profiling, ZLYTE; assay type: biochemical; details: FGFR2, 10 µM
[17] = biological target: FLT3 (Homo sapiens, UniProt P36888); assay: SelectScreen kinase profiling, ZLYTE; assay type: biochemical; details: FLT3, 10 µM
[18] = biological target: ICK (Homo sapiens, UniProt Q9UPZ9); assay: SelectScreen kinase profiling, LanthaScreen binding
[19] = biological target: JAK2 (Homo sapiens, UniProt O60674); assay: SelectScreen kinase profiling, ZLYTE; assay type: biochemical; details: JAK2, 10 µM
[20] = biological target: LTK (TYK1) (Homo sapiens, UniProt P29376); assay: SelectScreen kinase profiling, ZLYTE; assay type: biochemical
[21] = biological target: MAP3K14 (NIK) (Homo sapiens, UniProt Q99558); assay: SelectScreen kinase profiling, LanthaScreen binding
[22] = biological target: MAP4K2 (GCK) (Homo sapiens, UniProt Q12851); assay: SelectScreen kinase profiling, ZLYTE; assay type: biochemical
[23] = biological target: MERTK (cMER) (Homo sapiens, UniProt Q12866); assay: SelectScreen kinase profiling, ZLYTE; assay type: biochemical
[24] = biological target: MYLK (MLCK) (Homo sapiens, UniProt Q15746); assay: SelectScreen kinase profiling, LanthaScreen binding
[25] = biological target: NEK9 (Homo sapiens, UniProt Q8TD19); assay: SelectScreen kinase profiling, ZLYTE; assay type: biochemical; details: NEK9, 10 µM
[26] = biological target: NIM1K (Homo sapiens, UniProt Q8IY84); assay: SelectScreen kinase profiling, ZLYTE; assay type: biochemical
[27] = biological target: PDGFRA V561D (Homo sapiens, UniProt P16234, V561D); assay: SelectScreen kinase profiling, ZLYTE; assay type: biochemical
[28] = biological target: PDK1 Direct (Homo sapiens, UniProt O15530); assay: SelectScreen kinase profiling, ZLYTE; assay type: biochemical
[29] = biological target: PIK3C2A (PI3K-C2 alpha) (Homo sapiens, UniProt O00443); assay: SelectScreen kinase profiling, Adapta; assay type: biochemical
[30] = biological target: PIK3C3 (hVPS34) (Homo sapiens, UniProt Q8NEB9); assay: SelectScreen kinase profiling, Adapta; assay type: biochemical
[31] = biological target: PIM1 (Homo sapiens, UniProt P11309); assay: SelectScreen kinase profiling, ZLYTE; assay type: biochemical; details: PIM1, 10 µM
[32] = biological target: PIP5K1C (Homo sapiens, UniProt O60331); assay: SelectScreen kinase profiling, Adapta; assay type: biochemical
[33] = biological target: PKMYT1 (Homo sapiens, UniProt Q99640); assay: SelectScreen kinase profiling, LanthaScreen binding; details: PKMYT1, 10 µM
[34] = biological target: RAF1 (cRAF) Y340D Y341D (Homo sapiens, UniProt P04049, Y340D/Y341D); assay: as above
[35] = biological target: RET (Homo sapiens, UniProt P07949); assay: SelectScreen kinase profiling, ZLYTE; assay type: biochemical
[36] = biological target: RPS6KA5 (MSK1) (Homo sapiens, UniProt O75582); assay: SelectScreen kinase profiling, ZLYTE; assay type: biochemical
[37] = biological target: SGK2 (Homo sapiens, UniProt Q9HBY8); assay: SelectScreen kinase profiling, ZLYTE; assay type: biochemical; details: SGK2, 10 µM
[38] = biological target: ULK3 (Homo sapiens, UniProt Q6PHR2); assay: SelectScreen kinase profiling, LanthaScreen binding; details: ULK3, 10 µM
[39] = biological target: P450 2J2 (Homo sapiens, UniProt P51589); assay: SelectScreen P450 Vivid biochemical assay; details: 10000nM; substrate MOBFC

Sequence of CDK9/cyclin K (P50750 whole entry): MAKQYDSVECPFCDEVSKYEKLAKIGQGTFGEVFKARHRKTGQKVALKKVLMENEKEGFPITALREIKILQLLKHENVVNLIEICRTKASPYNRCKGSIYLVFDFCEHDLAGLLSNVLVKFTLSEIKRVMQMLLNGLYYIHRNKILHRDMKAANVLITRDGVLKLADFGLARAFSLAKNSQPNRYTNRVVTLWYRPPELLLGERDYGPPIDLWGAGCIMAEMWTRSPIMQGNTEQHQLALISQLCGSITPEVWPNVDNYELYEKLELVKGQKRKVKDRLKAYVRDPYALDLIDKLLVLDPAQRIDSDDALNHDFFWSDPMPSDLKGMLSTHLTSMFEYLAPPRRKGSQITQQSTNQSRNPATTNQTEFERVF
Sequence of CDK9/cyclin K (O75909 whole entry partner): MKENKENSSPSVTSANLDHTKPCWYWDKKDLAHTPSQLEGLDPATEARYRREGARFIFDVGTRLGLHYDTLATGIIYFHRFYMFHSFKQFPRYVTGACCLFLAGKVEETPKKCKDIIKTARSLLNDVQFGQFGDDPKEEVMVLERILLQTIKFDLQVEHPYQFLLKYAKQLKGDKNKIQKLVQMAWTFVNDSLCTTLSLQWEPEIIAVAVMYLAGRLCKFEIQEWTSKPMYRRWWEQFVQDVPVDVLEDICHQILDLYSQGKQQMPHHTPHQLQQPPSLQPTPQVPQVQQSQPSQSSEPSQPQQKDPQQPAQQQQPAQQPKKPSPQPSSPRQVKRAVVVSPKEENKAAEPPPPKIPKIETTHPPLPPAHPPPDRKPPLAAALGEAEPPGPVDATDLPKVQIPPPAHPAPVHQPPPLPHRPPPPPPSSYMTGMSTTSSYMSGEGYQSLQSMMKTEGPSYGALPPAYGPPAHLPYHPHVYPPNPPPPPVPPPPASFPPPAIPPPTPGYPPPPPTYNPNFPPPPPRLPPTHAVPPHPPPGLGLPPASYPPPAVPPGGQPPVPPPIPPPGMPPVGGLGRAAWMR
Sequence of PIK3C3 (hVPS34) (Q8NEB9 whole entry): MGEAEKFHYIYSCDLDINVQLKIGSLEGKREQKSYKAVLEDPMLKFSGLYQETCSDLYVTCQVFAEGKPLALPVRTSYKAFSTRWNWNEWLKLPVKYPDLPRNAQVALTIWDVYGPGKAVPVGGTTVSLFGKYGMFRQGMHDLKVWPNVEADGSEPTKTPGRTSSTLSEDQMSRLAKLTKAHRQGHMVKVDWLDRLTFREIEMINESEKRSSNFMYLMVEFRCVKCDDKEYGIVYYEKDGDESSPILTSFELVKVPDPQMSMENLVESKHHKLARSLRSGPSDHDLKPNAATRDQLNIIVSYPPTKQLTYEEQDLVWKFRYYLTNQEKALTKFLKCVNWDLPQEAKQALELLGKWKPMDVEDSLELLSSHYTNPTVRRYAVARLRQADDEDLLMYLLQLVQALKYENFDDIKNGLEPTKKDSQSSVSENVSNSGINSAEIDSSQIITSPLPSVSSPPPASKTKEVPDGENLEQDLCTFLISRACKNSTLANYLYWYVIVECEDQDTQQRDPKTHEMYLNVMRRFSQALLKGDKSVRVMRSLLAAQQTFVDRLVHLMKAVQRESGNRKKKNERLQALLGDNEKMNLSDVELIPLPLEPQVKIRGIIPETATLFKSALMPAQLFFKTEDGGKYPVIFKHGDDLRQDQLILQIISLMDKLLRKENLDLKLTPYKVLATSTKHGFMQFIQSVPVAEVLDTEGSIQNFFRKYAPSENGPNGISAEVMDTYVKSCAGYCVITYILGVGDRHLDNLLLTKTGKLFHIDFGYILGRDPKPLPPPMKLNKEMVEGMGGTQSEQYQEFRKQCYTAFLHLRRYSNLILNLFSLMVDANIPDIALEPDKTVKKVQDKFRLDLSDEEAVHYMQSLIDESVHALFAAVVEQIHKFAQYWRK
Sequence of FLT3 (P36888 27-993): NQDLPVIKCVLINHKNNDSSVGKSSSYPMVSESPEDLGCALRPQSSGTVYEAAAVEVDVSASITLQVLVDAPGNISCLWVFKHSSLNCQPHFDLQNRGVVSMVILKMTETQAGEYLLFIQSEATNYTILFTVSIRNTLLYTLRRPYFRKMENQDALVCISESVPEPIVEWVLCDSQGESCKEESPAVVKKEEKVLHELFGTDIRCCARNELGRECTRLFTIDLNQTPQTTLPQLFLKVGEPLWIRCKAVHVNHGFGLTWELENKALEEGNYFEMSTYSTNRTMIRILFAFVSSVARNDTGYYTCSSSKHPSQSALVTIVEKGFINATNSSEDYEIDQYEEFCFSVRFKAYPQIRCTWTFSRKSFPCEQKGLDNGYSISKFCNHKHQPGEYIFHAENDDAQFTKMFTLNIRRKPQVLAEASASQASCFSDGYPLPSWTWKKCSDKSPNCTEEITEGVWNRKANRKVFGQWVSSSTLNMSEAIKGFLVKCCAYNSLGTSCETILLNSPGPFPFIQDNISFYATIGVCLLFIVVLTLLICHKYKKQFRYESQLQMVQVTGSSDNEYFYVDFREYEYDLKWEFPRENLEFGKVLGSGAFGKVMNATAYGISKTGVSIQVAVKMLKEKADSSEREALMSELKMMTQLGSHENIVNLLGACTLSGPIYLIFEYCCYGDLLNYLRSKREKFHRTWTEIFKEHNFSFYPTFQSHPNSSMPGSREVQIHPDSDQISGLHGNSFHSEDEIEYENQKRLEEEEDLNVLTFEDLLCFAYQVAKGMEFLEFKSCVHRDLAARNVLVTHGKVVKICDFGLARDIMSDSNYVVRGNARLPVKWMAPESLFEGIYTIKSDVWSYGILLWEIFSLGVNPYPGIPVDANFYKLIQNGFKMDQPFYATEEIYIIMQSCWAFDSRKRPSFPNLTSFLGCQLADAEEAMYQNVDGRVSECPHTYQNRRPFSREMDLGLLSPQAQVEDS
Sequence of RPS6KA5 (MSK1) (O75582 whole entry): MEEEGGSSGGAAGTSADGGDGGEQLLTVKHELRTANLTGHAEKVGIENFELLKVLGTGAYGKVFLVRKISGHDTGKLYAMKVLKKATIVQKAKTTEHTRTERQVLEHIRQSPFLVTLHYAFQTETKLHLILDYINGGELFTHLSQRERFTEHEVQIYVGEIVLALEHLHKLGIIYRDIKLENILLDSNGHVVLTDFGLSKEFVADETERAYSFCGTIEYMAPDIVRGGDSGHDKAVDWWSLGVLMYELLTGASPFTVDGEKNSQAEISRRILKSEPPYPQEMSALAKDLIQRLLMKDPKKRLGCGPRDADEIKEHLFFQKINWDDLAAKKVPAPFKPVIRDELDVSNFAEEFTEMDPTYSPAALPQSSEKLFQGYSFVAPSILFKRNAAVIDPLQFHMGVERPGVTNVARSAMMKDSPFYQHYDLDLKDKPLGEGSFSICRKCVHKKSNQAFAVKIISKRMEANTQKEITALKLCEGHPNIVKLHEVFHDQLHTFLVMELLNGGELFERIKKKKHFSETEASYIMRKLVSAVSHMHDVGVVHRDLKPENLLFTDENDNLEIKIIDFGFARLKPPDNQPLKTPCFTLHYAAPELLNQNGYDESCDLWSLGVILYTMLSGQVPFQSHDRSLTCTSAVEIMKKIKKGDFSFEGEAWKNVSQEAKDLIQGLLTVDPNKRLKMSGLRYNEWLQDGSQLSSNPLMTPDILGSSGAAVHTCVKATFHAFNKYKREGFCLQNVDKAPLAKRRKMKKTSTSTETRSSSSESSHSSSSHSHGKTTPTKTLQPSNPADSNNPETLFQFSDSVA
Sequence of DDR1 (Q08345 19-913): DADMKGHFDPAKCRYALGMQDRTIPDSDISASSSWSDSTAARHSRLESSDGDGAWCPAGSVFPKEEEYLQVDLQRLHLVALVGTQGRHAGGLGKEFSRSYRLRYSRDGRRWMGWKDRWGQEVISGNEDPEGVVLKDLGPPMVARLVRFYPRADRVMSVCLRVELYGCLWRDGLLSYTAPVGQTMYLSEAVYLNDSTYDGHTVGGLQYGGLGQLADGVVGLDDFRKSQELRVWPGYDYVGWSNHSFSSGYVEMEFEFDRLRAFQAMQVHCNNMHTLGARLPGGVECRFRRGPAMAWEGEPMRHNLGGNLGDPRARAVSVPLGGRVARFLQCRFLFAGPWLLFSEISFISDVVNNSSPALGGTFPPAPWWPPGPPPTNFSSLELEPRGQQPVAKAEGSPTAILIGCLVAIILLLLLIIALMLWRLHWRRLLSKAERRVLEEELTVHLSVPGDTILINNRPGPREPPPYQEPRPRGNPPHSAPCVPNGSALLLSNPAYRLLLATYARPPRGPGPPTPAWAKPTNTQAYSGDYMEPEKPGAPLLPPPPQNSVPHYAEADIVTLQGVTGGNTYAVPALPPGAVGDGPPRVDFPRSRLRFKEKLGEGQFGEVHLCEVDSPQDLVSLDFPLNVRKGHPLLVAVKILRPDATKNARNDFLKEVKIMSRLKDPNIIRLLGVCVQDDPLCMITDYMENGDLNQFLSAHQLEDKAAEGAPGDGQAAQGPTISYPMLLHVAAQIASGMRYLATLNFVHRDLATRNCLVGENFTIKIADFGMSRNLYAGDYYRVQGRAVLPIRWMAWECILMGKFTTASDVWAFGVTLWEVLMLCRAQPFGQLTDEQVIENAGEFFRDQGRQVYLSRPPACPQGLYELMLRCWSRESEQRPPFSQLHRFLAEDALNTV
Sequence of ACVR1 (ALK2) (Q04771 21-509): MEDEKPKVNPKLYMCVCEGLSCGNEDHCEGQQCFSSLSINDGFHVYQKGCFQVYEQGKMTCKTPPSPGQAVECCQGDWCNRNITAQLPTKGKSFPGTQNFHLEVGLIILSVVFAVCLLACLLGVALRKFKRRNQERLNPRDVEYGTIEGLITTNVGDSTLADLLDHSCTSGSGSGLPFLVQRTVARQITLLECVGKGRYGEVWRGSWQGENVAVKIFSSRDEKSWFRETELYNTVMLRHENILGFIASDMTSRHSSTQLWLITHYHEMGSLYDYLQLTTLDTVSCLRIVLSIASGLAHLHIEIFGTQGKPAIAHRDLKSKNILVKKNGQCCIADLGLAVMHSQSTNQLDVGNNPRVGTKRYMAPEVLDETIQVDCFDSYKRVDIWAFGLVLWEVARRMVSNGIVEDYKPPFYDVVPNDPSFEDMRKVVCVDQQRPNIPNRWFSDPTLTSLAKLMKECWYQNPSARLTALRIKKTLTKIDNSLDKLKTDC

## O=C(c1ccc(/C=C/c2n[nH]c3ccccc23)cc1)N1CCNCC1 [KW-2449]
[1]
  inhibition at 10 µM: 78%
[2]
  inhibition at 10 µM: 98%
[3]
  inhibition at 10 µM: 94%
[4]
  inhibition at 10 µM: 38%
[5]
  inhibition at 10 µM: 11%
[6]
  inhibition at 10 µM: 56%
[7]
  inhibition at 10 µM: 13%
[8]
  inhibition at 10 µM: 67%
[9]
  inhibition at 10 µM: 96%
[10]
  inhibition at 10 µM: 52%
[11]
  inhibition at 10 µM: 83%
[12]
  inhibition at 10 µM: 38%
[13]
  inhibition at 10 µM: 38%
[14]
  inhibition at 10 µM: 55%
[15]
  inhibition at 10 µM: 66%
[16]
  inhibition at 10 µM: 97%
[17]
  inhibition at 10 µM: 100%
[18]
  inhibition at 10 µM: 74%
[19]
  inhibition at 10 µM: 98%
[20]
  inhibition at 10 µM: 90%
[21]
  inhibition at 10 µM: 90%
[22]
  inhibition at 10 µM: 101%
[23]
  inhibition at 10 µM: 93%
[24]
  inhibition at 10 µM: 80%
[25]
  inhibition at 10 µM: 70%
[26]
  inhibition at 10 µM: 79%
[27]
  inhibition at 10 µM: 97%
[28]
  inhibition at 10 µM: 103%
[29]
  inhibition at 10 µM: 4%
[30]
  inhibition at 10 µM: -3%
[31]
  inhibition at 10 µM: 42%
[32]
  inhibition at 10 µM: 7%
[33]
  inhibition at 10 µM: -61%
[34]
  inhibition at 10 µM: 0%
[35]
  inhibition at 10 µM: 101%
[36]
  inhibition at 10 µM: 49%
[37]
  inhibition at 10 µM: 95%
[38]
  inhibition at 10 µM: 5%
[39]
  % Inhibition 2J2 MOBFC: 96%
